Reference: patent publication US10945992B1, “Dosage forms of rofecoxib and related methods” (Tremeau Pharmaceuticals, Inc., priority 2019, dated 2021)
Where two headings read alike, the source gives them in different places.

Assay: TRM-201-PK-102 single-dose four-period crossover pharmacokinetic study, fasted healthy subjects
Format: in vivo, human
Details: for geometric mean ratio AUC0-∞ to historical data for the 25 mg VIOXX product / geometric mean ratio Cmax to historical data for the 25 mg VIOXX product: sensitivity analysis; for AUC(0-inf) / Cmax: human, plasma, oral
Description: A Single-Dose, Open-Label, Phase 1, Four-Period Crossover Pharmacokinetic Study of TRM-201 (Rofecoxib) 12.5 mg, 17.5 mg, 20 mg and 25 mg Administered to Healthy Subjects in a Fasting State, with Comparison to Historical Pharmacokinetic Parameters of Previously Marketed Rofecoxib (“TRM-201-PK-102” or “102 PK Study”)
This was a single-center, open-label four-period crossover PK study of TRM-201. The study included 24 subjects who received TRM-201 as a single dose of 12.5 mg, 17.5 mg, 20 mg and 25 mg to assess the PK of TRM-201 in healthy volunteers under fasted conditions. Subjects were randomized to one of four treatment sequences. The PK data from the current study along with the data from the TRM-201-PK-101 study (Example 4) was used to compare to historical pharmacokinetic parameters of previously marketed rofecoxib, all in a fasted state.
In each of the four dosing periods, subjects fasted overnight for at least 10 hours before study drug dosing. While fasting, subjects had nothing to eat and only water to drink. Water was permitted as desired, except for the period between 1 hour before and 1 hour after study drug dosing (excepting as permitted for dosing). After the 2-hour PK blood sample, subjects were allowed one 250-mL cup of clear apple juice. After the 4-hour PK blood sample, subjects were served a light lunch. Following the light lunch, subjects received standardized meals according to the clinic's standard procedures that were scheduled at consistent times and at least 15 minutes before or 15 minutes after PK sampling time points. Blood was withdrawn for PK analysis at predefined time points. For each dosing period the last time point was 120 hours after dosing with study drug (Day 6). After the 120 hour PK sample, the EOP procedures was completed, subjects remained in-clinic for the in-between dose period day (Days 7, 14, and 21) and began the next dosing period starting with an overnight fast for at least 10 hours on Day −1 of the subsequent dosing period. Pharmacokinetic and safety endpoints were evaluated.
The study drug, TRM-201, was an immediate-release tablet that contained 12.5 mg rofecoxib, 17.5 mg rofecoxib, 20 mg rofecoxib or 25 mg rofecoxib. The 7.25-mm diameter tablets were off-white, round, and uncoated with no markings. TRM-201 tablets were for oral administration.
For each sample, approximately 3 mL of blood were drawn. The samples were obtained by a straight stick or via an in-dwelling intravenous (IV) catheter in a forearm vein. Additional details for the collection, processing, storage, and shipping of PK samples were provided in the study manual.
Pharmacokinetic samples will be analyzed using a validated assay for rofecoxib in human plasma. Assay results and validation details will be provided in a separate bioanalytical report. The following PK parameters for rofecoxib will be calculated as primary endpoints using standard noncompartmental methods: AUC0-∞ and Cmax. Secondary endpoints include Tmax, and t1/2. Additional PK parameters (e.g., CL/F, and Vd/F) will also be calculated using standard noncompartmental methods.
Individual plasma concentrations for rofecoxib and PK sampling time deviation data will be presented in a data listing. Plasma concentration data will be summarized by time point using the following descriptive statistics: number of subjects, arithmetic mean, SD, coefficient of variation (CV), geometric mean, natural-log-scale SD, geometric CV, median, minimum, and maximum. Individual plasma concentration versus actual time profiles were presented on both linear and semilogarithmic scales. Additionally, arithmetic mean concentration versus scheduled time profiles were presented on linear scales and geometric means on semilogarithmic scales.
The PK parameters of rofecoxib were analyzed based on the actual sampling times. […]

## CS(=O)(=O)c1ccc(C2=C(c3ccccc3)C(=O)OC2)cc1 [TRM-201, 4-[4-(methylsulfonyl)phenyl]-3-phenyl-2(5H)-furanone]
17.5 mg, 15 minutes
  arithmetic mean plasma concentration: 2.42 ng/mL
17.5 mg, 45 minutes
  arithmetic mean plasma concentration: 93 ng/mL
TRM-201 17.5 mg
  geometric mean ratio AUC0-∞ to historical data for the 25 mg VIOXX product: 0.819
  geometric mean ratio Cmax to historical data for the 25 mg VIOXX product: 1.03
TRM-201 20 mg
  geometric mean ratio AUC0-∞ to historical data for the 25 mg VIOXX product: 0.934
  geometric mean ratio Cmax to historical data for the 25 mg VIOXX product: 1.19
female, 12.5 mg, 102 study, females, read-out: arithmetic mean AUC0-∞
  AUC(0-inf): 2240 ng·h/mL
female, 12.5 mg, 102 study, females, read-out: arithmetic mean Cmax
  Cmax: 168 ng/mL
female, 12.5 mg, 102 study, females, read-out: geometric mean AUC0-∞
  AUC(0-inf): 2170 ng·h/mL
female, 12.5 mg, 102 study, females, read-out: geometric mean Cmax
  Cmax: 160 ng/mL
female, 17.5 mg, 102 study, females, read-out: arithmetic mean AUC0-∞
  AUC(0-inf): 3650 ng·h/mL
female, 17.5 mg, 102 study, females, read-out: arithmetic mean Cmax
  Cmax: 266 ng/mL
female, 17.5 mg, 102 study, females, read-out: geometric mean AUC0-∞
  AUC(0-inf): 3490 ng·h/mL
female, 17.5 mg, 102 study, females, read-out: geometric mean Cmax
  Cmax: 251 ng/mL
female, 20 mg, 102 study, females, read-out: arithmetic mean AUC0-∞
  AUC(0-inf): 4270 ng·h/mL
female, 20 mg, 102 study, females, read-out: arithmetic mean Cmax
  Cmax: 314 ng/mL
female, 20 mg, 102 study, females, read-out: geometric mean AUC0-∞
  AUC(0-inf): 4160 ng·h/mL
female, 20 mg, 102 study, females, read-out: geometric mean Cmax
  Cmax: 293 ng/mL
female, 25 mg, 102 study, females, read-out: arithmetic mean AUC0-∞
  AUC(0-inf): 5090 ng·h/mL
female, 25 mg, 102 study, females, read-out: arithmetic mean Cmax
  Cmax: 388 ng/mL
12.5 mg, 102 study only, read-out: arithmetic mean AUC0-∞
  AUC(0-inf): 2010 ng·h/mL
12.5 mg, 102 study only, read-out: arithmetic mean Cmax
  Cmax: 151 ng/mL
12.5 mg, 102 study only, read-out: geometric mean AUC0-∞
  AUC(0-inf): 1880 ng·h/mL
12.5 mg, 102 study only, read-out: geometric mean Cmax
  Cmax: 144 ng/mL
12.5 mg, 102 study, 18-40 years, read-out: arithmetic mean AUC0-∞
  AUC(0-inf): 1680 ng·h/mL
12.5 mg, 102 study, 18-40 years, read-out: arithmetic mean Cmax
  Cmax: 164 ng/mL
12.5 mg, 102 study, 18-40 years, read-out: geometric mean AUC0-∞
  AUC(0-inf): 1570 ng·h/mL
12.5 mg, 102 study, 18-40 years, read-out: geometric mean Cmax
  Cmax: 156 ng/mL
12.5 mg, 102 study, 41-52 years, read-out: arithmetic mean AUC0-∞
  AUC(0-inf): 2090 ng·h/mL
12.5 mg, 102 study, 41-52 years, read-out: arithmetic mean Cmax
  Cmax: 140 ng/mL
12.5 mg, 102 study, 41-52 years, read-out: geometric mean AUC0-∞
  AUC(0-inf): 1880 ng·h/mL
12.5 mg, 102 study, 41-52 years, read-out: geometric mean Cmax
  Cmax: 133 ng/mL
12.5 mg, 102 study, 53-60 years, read-out: arithmetic mean AUC0-∞
  AUC(0-inf): 2270 ng·h/mL
12.5 mg, 102 study, 53-60 years, read-out: arithmetic mean Cmax
  Cmax: 150 ng/mL
12.5 mg, 102 study, 53-60 years, read-out: geometric mean AUC0-∞
  AUC(0-inf): 2240 ng·h/mL
12.5 mg, 102 study, 53-60 years, read-out: geometric mean Cmax
  Cmax: 143 ng/mL
12.5 mg, 102 study, Black or African-American subjects, read-out: arithmetic mean AUC0-∞
  AUC(0-inf): 1660 ng·h/mL
12.5 mg, 102 study, Black or African-American subjects, read-out: arithmetic mean Cmax
  Cmax: 143 ng/mL
12.5 mg, 102 study, Black or African-American subjects, read-out: geometric mean AUC0-∞
  AUC(0-inf): 1590 ng·h/mL
12.5 mg, 102 study, Black or African-American subjects, read-out: geometric mean Cmax
  Cmax: 142 ng/mL
12.5 mg, 102 study, Hispanic or Latino subjects, read-out: arithmetic mean AUC0-∞
  AUC(0-inf): 2210 ng·h/mL
12.5 mg, 102 study, Hispanic or Latino subjects, read-out: arithmetic mean Cmax
  Cmax: 157 ng/mL
12.5 mg, 102 study, Hispanic or Latino subjects, read-out: geometric mean AUC0-∞
  AUC(0-inf): 2090 ng·h/mL
12.5 mg, 102 study, Hispanic or Latino subjects, read-out: geometric mean Cmax
  Cmax: 146 ng/mL
12.5 mg, 102 study, White subjects, read-out: arithmetic mean AUC0-∞
  AUC(0-inf): 2110 ng·h/mL
12.5 mg, 102 study, White subjects, read-out: arithmetic mean Cmax
  Cmax: 153 ng/mL
12.5 mg, 102 study, White subjects, read-out: geometric mean AUC0-∞
  AUC(0-inf): 1960 ng·h/mL
12.5 mg, 102 study, White subjects, read-out: geometric mean Cmax
  Cmax: 144 ng/mL
12.5 mg, 102 study, body weight 47-70 kg, read-out: arithmetic mean AUC0-∞
  AUC(0-inf): 1850 ng·h/mL
12.5 mg, 102 study, body weight 47-70 kg, read-out: arithmetic mean Cmax
  Cmax: 175 ng/mL
12.5 mg, 102 study, body weight 47-70 kg, read-out: geometric mean AUC0-∞
  AUC(0-inf): 1690 ng·h/mL
12.5 mg, 102 study, body weight 47-70 kg, read-out: geometric mean Cmax
  Cmax: 165 ng/mL
12.5 mg, 102 study, body weight 70.1-77 kg, read-out: arithmetic mean AUC0-∞
  AUC(0-inf): 2500 ng·h/mL
12.5 mg, 102 study, body weight 70.1-77 kg, read-out: arithmetic mean Cmax
  Cmax: 155 ng/mL
12.5 mg, 102 study, body weight 70.1-77 kg, read-out: geometric mean AUC0-∞
  AUC(0-inf): 2420 ng·h/mL
12.5 mg, 102 study, body weight 70.1-77 kg, read-out: geometric mean Cmax
  Cmax: 147 ng/mL
12.5 mg, 102 study, body weight 77.1-90 kg, read-out: arithmetic mean AUC0-∞
  AUC(0-inf): 1790 ng·h/mL
